Experimental data taken from patent US11833204B2, “Visible light-activatable nanoparticles for cancer immunotherapy and use thereof” (KOREA INSTITUTE OF SCIENCE AND TECHNOLOGY, priority 2021, dated 2023).

Tested on: CT26 cells
Assay: Anticancer effect in CT26 tumor animal model
Type: in vivo, mice
Protocol: […] nude mice (6 weeks old, 20-25 g, male) bred in a sterile environment were used. The mice were acclimated for 2 weeks prior to starting the experiment. The mice had ad libitum access to food and water in cages maintained at a temperature of 22±2° C. and a humidity of 40-60% on a 12 h light and dark cycle during the experiment. All experimental procedures were performed according to the guidelines of the Institutional Animal Care and Use Committee of the Korea Institute of Science and Technology.
Colon cancer was induced in the male nude mice. To this end, 1×10^6 CT26 cells were subcutaneously inoculated into the left thigh of each mouse to construct a tumor animal model. Thereafter, the tumor was allowed to grow until its volume reached ˜200-250 mm^3 prior to the experiment. For sample administration, the mice were randomly divided into 4 groups, 24 animals per group. In a control (“Con”), animals were administered intravenously PBS at a concentration of 5 mg/kg twice on days 0 and 2. In a DOX-administered group, animals were administered intravenously doxorubicin (DOX) at a concentration of 5 mg/kg twice on days 0 and 2. In a VPF(+L)-administered group, animals were administered intravenously verteporfin (VPF) at a concentration of 5 mg/kg twice on days 0 and 2 and exposed by irradiation with visible light using a 671 nm laser at 40 mW for 250 sec. In an LT-NPs(-L)-administered group, animals were administered intravenously the self-assembled nanoparticles (LT-NPs) at a concentration of 5 mg/kg twice on days 0 and 2. In an LT-NPs(+L)-administered group, animals were administered intravenously the self-assembled nanoparticles (LT-NPs) at a concentration of 5 mg/kg twice on days 0 and 2 and exposed by irradiation with visible light using a 671 nm laser at 40 mW for 250 sec.
Changes in tumor volume (maximum diameter x minimum diameter^2×0.53) in the groups were measured every 2 days for a total of 0-25 days. After 7 days, blood was harvested from each group and analyzed for HSP70, HMGB1, immunogenic apoptotic cancer cells, mature dendritic cells, activated T cells, and IFN-γ levels.
9 h after drug administration, cancer tissues were excised from each group. Each cancer tissue was sectioned to a thickness of 10 μm, washed twice with DBPS, and stained with DAPI in the dark for 15 min. The section was imaged using a Leica TCS SP8 focal microscope (Leica Microsystems GmbH).
Immune cells infiltrated into cancer cells in each group were analyzed. After 7 days, animals in each group were euthanized under anesthesia and cancer tissues were collected. Monocytes were isolated using a tumor dissociation kit (Miltenyi Biotec) according to the manufacturer's protocol. Next, the monocytes were incubated with Fc block for 5 min to avoid non-specific binding and stained with antibodies for 1 h to determine the proportions of i) immunogenic apoptotic cancer cells (CD45 and CRT staining), ii) activated T cells (CD45, CD3, and CD8 staining), and iii) mature dendritic cells (CD11c, CD40, and CD86 staining) in the cancer tissues.

[1] = after 7 days, +L, Western blotting, versus other groups

## C=CC1=C(C)/C2=C/C3=NC(Cc4[nH]c(c(CCCCC(=O)OC)c4C)CC4N=C(CC1N2)C(C)=C4CCC(=O)N[C@H](Cc1ccccc1)C(=O)N[C@@H](CCCNC(=N)N)C(=O)N[C@H](CCCNC(=N)N)C(=O)NCC(=O)NC1C[C@@H](OC2C[C@](O)(C(=O)CO)Cc4c(O)c5c(c(O)c42)C(=O)c2c(OC)cccc2C5=O)O[C@@H](C)[C@H]1O)[C@@]1(C)C3=CC=C(C(=O)OC)[C@@H]1C(=O)OC (some centres unmarked) [LT-NPs, VPF-FRRG(SEQ ID NO: 1)-DOX]
5 mg/kg i.v. days 0 and 2, +L
  number of animals cured: 3
5 mg/kg i.v. days 0 and 2, +L (671 nm laser 40 mW 250 sec), versus other groups
  growth of cancer cells (tumor volume): significantly reduced
After 7 days, +L
  proportion of activated T cells in cancer tissues: significantly higher than those in the other groups
  proportion of immunogenic apoptotic cancer cells in cancer tissues: significantly higher than those in the other groups
  proportion of mature dendritic cells in cancer tissues: significantly higher than those in the other groups
[1]
  expression level of HMGB1: significantly high
  expression level of HSP70: significantly high
After 7 days, +L, versus other groups
  degree of apoptosis in cancer cells: significantly high
